In paper PMC3950855 (British Journal of Cancer, 2014):
Where “and” joins values, the source holds several entries; their conditions need not be identical. Equal entries are not always repeated. Each block holds one compound with its values, some of them ahead of it.

Tests used:
[1] = Phase I trial safety: adverse events; assay type: in vivo, human
CYP2D6 = conditions: ref Hamberg et al, 2011; Filppula et al, 2012; cited from earlier work
[2] = Plasma pharmacokinetics by LC/PDA; conditions: for Cmax: human, in vivo, im, Panobinostat Cmax (mean), 20 mg
[3] = tested on: histone H3 acetylation in PBMNC; test: Acetylation of histone H3 in PBMNC of study patients; assay type: in vivo, human; conditions: dose level 1, three patients
[4] = tested on: GIST-T1 (exon 11-mutant) cells; test: GIST-T1 cells immunoblot; assay type: cell-based
PBMNC = assay type: cell-based, human; conditions: ex vivo incubation for 8 h
[5] = 20 mg thrice weekly; ref Fukutomi et al (2012); cited from earlier work
GIST = conditions: salvage treatment; ref Demetri et al, 2006, 2012; cited from earlier work
[6] = both dose levels + IM 400 mg, 12 patients
[7] = panobinostat + IM 400 mg, 12 patients
[8] = Pan 50 nm for 8 h, then withdrawal

SMILES: Cc1[nH]c2ccccc2c1CCNCc1ccc(/C=C/C(=O)NO)cc1 [panobinostat, Panobinostat]
Anaemia, % of patients [1, 6]: 42% and 41.7%
Anaemia, No. of patients Total [1, 6]: 5
Chills, % of patients [1, 6]: 16.7%
Chills, No. of patients Total [1, 6]: 2
Constipation, % of patients [1, 6]: 16.7%
Constipation, No. of patients Total [1, 6]: 2
Creatinine, % of patients [1, 6]: 58% and 58.3%
Creatinine, No. of patients Total [1, 6]: 7
Diarrhoea, % of patients [1, 6]: 42% and 41.7%
Diarrhoea, No. of patients Total [1, 6]: 5
Dizziness, % of patients [1, 6]: 25.0%
Dizziness, No. of patients Total [1, 6]: 3
Dry mouth, % of patients [1, 6]: 16.7%
Dry mouth, No. of patients Total [1, 6]: 2
Dry skin, % of patients [1, 6]: 16.7%
Dry skin, No. of patients Total [1, 6]: 2
Dysgeusia, % of patients [1, 6]: 16.7%
Dysgeusia, No. of patients Total [1, 6]: 2
Dyspepsia, % of patients [1, 6]: 25.0%
Dyspepsia, No. of patients Total [1, 6]: 3
Fatigue, % of patients [1, 6]: 67% and 66.7%
Fatigue, No. of patients Total [1, 6]: 8
Headache, % of patients [1, 6]: 16.7%
Headache, No. of patients Total [1, 6]: 2
Hypothyroidism, % of patients [1, 6]: 25.0%
Hypothyroidism, No. of patients Total [1, 6]: 3
Lymphopenia, % of patients [1, 6]: 16.7%
Lymphopenia, No. of patients Total [1, 6]: 2
Muscle spasms, % of patients [1, 6]: 25.0%
Muscle spasms, No. of patients Total [1, 6]: 3
Nausea, % of patients [1, 6]: 50%
Nausea, No. of patients Total [1, 6]: 6
Neutropenia, % of patients [1, 6]: 16.7%
Neutropenia, No. of patients Total [1, 6]: 2
Oedema, % of patients [1, 6]: 25.0%
Oedema, No. of patients Total [1, 6]: 3
Thrombocytopenia, % of patients [1, 6]: 91.7%
Thrombocytopenia, No. of patients Total [1, 6]: 11
Vomiting, % of patients [1, 6]: 33% and 33.3%
Vomiting, No. of patients Total [1, 6]: 4
Weight loss, % of patients [1, 6]: 25.0%
Weight loss, No. of patients Total [1, 6]: 3
MTD (dose level) ([1]; dose level 1 = panobinostat 20 mg + IM 400 mg): dose level 1
dose-limiting toxicity ([1]; dose level 2 (30 mg panobinostat and 400 mg IM)): severe thrombocytopenia
Anaemia, No. of patients Grade 2 ([1]; panobinostat 20 mg + IM 400 mg): 3
Anaemia, No. of patients Total ([1]; panobinostat 20 mg + IM 400 mg): 3
Chills, No. of patients Grade 1 ([1]; panobinostat 20 mg + IM 400 mg): 1
Chills, No. of patients Grade 2 ([1]; panobinostat 20 mg + IM 400 mg): 1
Chills, No. of patients Total ([1]; panobinostat 20 mg + IM 400 mg): 2
Constipation, No. of patients Grade 1 ([1]; panobinostat 20 mg + IM 400 mg): 1
Constipation, No. of patients Total ([1]; panobinostat 20 mg + IM 400 mg): 1
Creatinine, No. of patients Grade 1 ([1]; panobinostat 20 mg + IM 400 mg): 2
Creatinine, No. of patients Grade 2 ([1]; panobinostat 20 mg + IM 400 mg): 2
Creatinine, No. of patients Grade 3 ([1]; panobinostat 20 mg + IM 400 mg): 1
Creatinine, No. of patients Total ([1]; panobinostat 20 mg + IM 400 mg): 5
Diarrhoea, No. of patients Grade 1 ([1]; panobinostat 20 mg + IM 400 mg): 3
Diarrhoea, No. of patients Grade 2 ([1]; panobinostat 20 mg + IM 400 mg): 1
Diarrhoea, No. of patients Total ([1]; panobinostat 20 mg + IM 400 mg): 4
Dizziness, No. of patients Grade 1 ([1]; panobinostat 20 mg + IM 400 mg): 2
Dizziness, No. of patients Total ([1]; panobinostat 20 mg + IM 400 mg): 2
Dry mouth, No. of patients Grade 1 ([1]; panobinostat 20 mg + IM 400 mg): 2
Dry mouth, No. of patients Total ([1]; panobinostat 20 mg + IM 400 mg): 2
Dry skin, No. of patients Grade 1 ([1]; panobinostat 20 mg + IM 400 mg): 1
Dry skin, No. of patients Total ([1]; panobinostat 20 mg + IM 400 mg): 1
Dysgeusia, No. of patients Grade 1 ([1]; panobinostat 20 mg + IM 400 mg): 2
Dysgeusia, No. of patients Total ([1]; panobinostat 20 mg + IM 400 mg): 2
Dyspepsia, No. of patients Grade 1 ([1]; panobinostat 20 mg + IM 400 mg): 2
Dyspepsia, No. of patients Total ([1]; panobinostat 20 mg + IM 400 mg): 2
Fatigue, No. of patients Grade 1 ([1]; panobinostat 20 mg + IM 400 mg): 3
Fatigue, No. of patients Grade 2 ([1]; panobinostat 20 mg + IM 400 mg): 3
Fatigue, No. of patients Total ([1]; panobinostat 20 mg + IM 400 mg): 6
Headache, No. of patients Grade 1 ([1]; panobinostat 20 mg + IM 400 mg): 1
Headache, No. of patients Total ([1]; panobinostat 20 mg + IM 400 mg): 1
Hypothyroidism, No. of patients Grade 1 ([1]; panobinostat 20 mg + IM 400 mg): 3
Hypothyroidism, No. of patients Total ([1]; panobinostat 20 mg + IM 400 mg): 3
Lymphopenia, No. of patients Grade 3 ([1]; panobinostat 20 mg + IM 400 mg): 1
Lymphopenia, No. of patients Total ([1]; panobinostat 20 mg + IM 400 mg): 1
Muscle spasms, No. of patients Grade 1 ([1]; panobinostat 20 mg + IM 400 mg): 1
Muscle spasms, No. of patients Grade 2 ([1]; panobinostat 20 mg + IM 400 mg): 1
Muscle spasms, No. of patients Total ([1]; panobinostat 20 mg + IM 400 mg): 2
Nausea, No. of patients Grade 1 ([1]; panobinostat 20 mg + IM 400 mg): 1
Nausea, No. of patients Grade 2 ([1]; panobinostat 20 mg + IM 400 mg): 1
Nausea, No. of patients Total ([1]; panobinostat 20 mg + IM 400 mg): 2
Neutropenia, No. of patients Grade 4 ([1]; panobinostat 20 mg + IM 400 mg): 1
Neutropenia, No. of patients Total ([1]; panobinostat 20 mg + IM 400 mg): 1
Oedema, No. of patients Grade 1 ([1]; panobinostat 20 mg + IM 400 mg): 2
Oedema, No. of patients Total ([1]; panobinostat 20 mg + IM 400 mg): 2
Thrombocytopenia, No. of patients Grade 1 ([1]; panobinostat 20 mg + IM 400 mg): 3
Thrombocytopenia, No. of patients Grade 2 ([1]; panobinostat 20 mg + IM 400 mg): 1
Thrombocytopenia, No. of patients Grade 3 ([1]; panobinostat 20 mg + IM 400 mg): 1
Thrombocytopenia, No. of patients Grade 4 ([1]; panobinostat 20 mg + IM 400 mg): 1
Thrombocytopenia, No. of patients Total ([1]; panobinostat 20 mg + IM 400 mg): 6
Vomiting, No. of patients Grade 2 ([1]; panobinostat 20 mg + IM 400 mg): 1
Vomiting, No. of patients Total ([1]; panobinostat 20 mg + IM 400 mg): 1
Weight loss, No. of patients Grade 1 ([1]; panobinostat 20 mg + IM 400 mg): 1
Weight loss, No. of patients Grade 2 ([1]; panobinostat 20 mg + IM 400 mg): 1
Weight loss, No. of patients Total ([1]; panobinostat 20 mg + IM 400 mg): 2
Anaemia, No. of patients Grade 2 ([1]; panobinostat 30 mg + IM 400 mg): 2
Anaemia, No. of patients Total ([1]; panobinostat 30 mg + IM 400 mg): 2
Chills, No. of patients Total ([1]; panobinostat 30 mg + IM 400 mg): 0
Constipation, No. of patients Grade 1 ([1]; panobinostat 30 mg + IM 400 mg): 1
Constipation, No. of patients Total ([1]; panobinostat 30 mg + IM 400 mg): 1
Creatinine, No. of patients Grade 1 ([1]; panobinostat 30 mg + IM 400 mg): 1
Creatinine, No. of patients Grade 2 ([1]; panobinostat 30 mg + IM 400 mg): 1
Creatinine, No. of patients Total ([1]; panobinostat 30 mg + IM 400 mg): 2
Diarrhoea, No. of patients Grade 1 ([1]; panobinostat 30 mg + IM 400 mg): 1
Diarrhoea, No. of patients Total ([1]; panobinostat 30 mg + IM 400 mg): 1
Dizziness, No. of patients Grade 1 ([1]; panobinostat 30 mg + IM 400 mg): 1
Dizziness, No. of patients Total ([1]; panobinostat 30 mg + IM 400 mg): 1
Dry mouth, No. of patients Total ([1]; panobinostat 30 mg + IM 400 mg): 0
Dry skin, No. of patients Grade 1 ([1]; panobinostat 30 mg + IM 400 mg): 1
Dry skin, No. of patients Total ([1]; panobinostat 30 mg + IM 400 mg): 1
Dysgeusia, No. of patients Total ([1]; panobinostat 30 mg + IM 400 mg): 0
Dyspepsia, No. of patients Grade 1 ([1]; panobinostat 30 mg + IM 400 mg): 1
Dyspepsia, No. of patients Total ([1]; panobinostat 30 mg + IM 400 mg): 1
Fatigue, No. of patients Grade 2 ([1]; panobinostat 30 mg + IM 400 mg): 2
Fatigue, No. of patients Total ([1]; panobinostat 30 mg + IM 400 mg): 2
Headache, No. of patients Grade 2 ([1]; panobinostat 30 mg + IM 400 mg): 1
Headache, No. of patients Total ([1]; panobinostat 30 mg + IM 400 mg): 1
Hypothyroidism, No. of patients Total ([1]; panobinostat 30 mg + IM 400 mg): 0
Lymphopenia, No. of patients Grade 2 ([1]; panobinostat 30 mg + IM 400 mg): 1
Lymphopenia, No. of patients Total ([1]; panobinostat 30 mg + IM 400 mg): 1
Muscle spasms, No. of patients Grade 2 ([1]; panobinostat 30 mg + IM 400 mg): 1
Muscle spasms, No. of patients Total ([1]; panobinostat 30 mg + IM 400 mg): 1
Nausea, No. of patients Grade 1 ([1]; panobinostat 30 mg + IM 400 mg): 1
Nausea, No. of patients Grade 2 ([1]; panobinostat 30 mg + IM 400 mg): 2
Nausea, No. of patients Grade 3 ([1]; panobinostat 30 mg + IM 400 mg): 1
Nausea, No. of patients Total ([1]; panobinostat 30 mg + IM 400 mg): 4
Neutropenia, No. of patients Grade 2 ([1]; panobinostat 30 mg + IM 400 mg): 1
Neutropenia, No. of patients Total ([1]; panobinostat 30 mg + IM 400 mg): 1
Oedema, No. of patients Grade 1 ([1]; panobinostat 30 mg + IM 400 mg): 1
Oedema, No. of patients Total ([1]; panobinostat 30 mg + IM 400 mg): 1
Thrombocytopenia, No. of patients Grade 3 ([1]; panobinostat 30 mg + IM 400 mg): 3
Thrombocytopenia, No. of patients Grade 4 ([1]; panobinostat 30 mg + IM 400 mg): 2
Thrombocytopenia, No. of patients Total ([1]; panobinostat 30 mg + IM 400 mg): 5
Vomiting, No. of patients Grade 1 ([1]; panobinostat 30 mg + IM 400 mg): 2
Vomiting, No. of patients Grade 2 ([1]; panobinostat 30 mg + IM 400 mg): 1
Vomiting, No. of patients Total ([1]; panobinostat 30 mg + IM 400 mg): 3
Weight loss, No. of patients Grade 2 ([1]; panobinostat 30 mg + IM 400 mg): 1
Weight loss, No. of patients Total ([1]; panobinostat 30 mg + IM 400 mg): 1
Grade 3 and 4 toxicities clearly attributable to study treatments ([1]; panobinostat + IM 400 mg): thrombocytopenia, neutropenia and nausea
severe hepatotoxicity ([1]; panobinostat + IM 400 mg): did not occur
patients with at least one adverse event [1, 7]: All patients
treatment-related deaths [1, 7]: no treatment-related deaths
CYP2D6 inhibition (CYP2D6): weak inhibitor
Cmax ([2]; D1, with IM 400 mg): 36.1 nM
Cmax ([2]; D8, with IM 400 mg): 47.5 nM
Cmax ([2]; D15, with IM 400 mg): 44.6 nM
time H3 acetylation was maintained in PBMNCs [3]: 24 h
effect of continuous panobinostat treatment for 32 h [4]: reactivation of KIT phosphorylation
persistence of H3 acetylation after removal of panobinostat [4, 8]: 8 h
time to complete disappearance of H3 acetylation after removal [4, 8]: ≤ 24 h
concentration at which H3 acetylation became detectable (PBMNC): ≥ 5 ng/mL
Cmax plasma level, panobinostat monotherapy [5]: 10 ng /ml^−1

SMILES: CNC(=O)c1cc(Oc2ccc(NC(=O)Nc3ccc(Cl)c(C(F)(F)F)c3)c(F)c2)ccn1 [regorafenib]
median time to progression (GIST): ~6 months
objective remissions (GIST): 4.5%

actual plasma levels of desmethyl-IM vs prediction ([2]; during combination with panobinostat): as predicted
SMILES: Cc1ccc(NC(=O)c2ccc(CN3CCNCC3)cc2)cc1Nc1nccc(-c2cccnc2)n1 [desmethyl-IM, N-desmethyl-IM]
